For test [1], the target named is T1, SARM1 SAM-TIR (Homo sapiens, UniProt Q6SZW1).
T1 construct: This assay makes use of a fragment of the SARM1 molecule encompassing the SAM and TIR domains; made in house; host or cells: NRK1-HEK293T cells (transient transfection; clarified sonicated lysate used without purification)
T1 sequence (Q6SZW1 409-724 limits assumed): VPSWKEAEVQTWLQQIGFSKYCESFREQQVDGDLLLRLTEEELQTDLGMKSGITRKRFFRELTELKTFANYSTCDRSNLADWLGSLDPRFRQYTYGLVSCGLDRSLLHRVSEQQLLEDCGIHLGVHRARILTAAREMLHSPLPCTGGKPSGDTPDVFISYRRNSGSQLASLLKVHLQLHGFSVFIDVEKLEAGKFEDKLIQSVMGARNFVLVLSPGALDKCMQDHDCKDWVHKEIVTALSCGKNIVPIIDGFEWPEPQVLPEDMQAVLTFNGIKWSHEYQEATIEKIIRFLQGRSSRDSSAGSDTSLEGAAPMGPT
Kind of test: SAM-TIR SARM1 IC50 assay (NADase activity, NAD+ cleavage). Particulars: SAM-TIR lysate 5 μg/mL, 2 h pre-incubation, 5 μM NAD+, RapidFire MS readout. The format is biochemical. The text has this:
This Example describes an assay of SAM-TIR NADase activity and use of this assay to measure the efficacy of compounds of Formula I to block SARM1 mediated NAD+ cleavage. This assay is optimized in such a way as to characterize the efficacy of the compounds in Formula I to inhibit SARM1 activity and to calculate an IC50 value for each compound. This assay makes use of a fragment of the SARM1 molecule encompassing the SAM and TIR domains.
NRK1-HEK293T cells refers to a cell line that has been stably e transfected with an FCIV expression vector that expresses human Nicotinamide Riboside Kinase 1 (NRK1), an enzyme that converts the NAD+ biosynthetic precursor nicotinamide riboside (NR) to NMN, the immediate precursor of NAD+. When provided with NR this cell line augments intracellular NAD+ levels and maintains cell viability, when expressing SARM1 SAM-TIR. FIG. 2 illustrates that a NRK1-HEK293T stable line with NR supplementation maintains higher NAD+ levels upon SARM1-TIR expression. Data was generated from three independent NAD+ measurements from three independent transfection experiments, and normalized to data from a non-transfected experiment run concurrently. Data are presented as mean±SEM; Error bars: SEM; ***P<0.001 two tailed student's t-test.
NRK1-HEK293T cells were seeded onto 150 cm^2 plates at 20×10^6 cells per plate. The next day, the cells were transfected with 15 μg FCIV-SST (SAM-TIR expression plasmid, SEQ ID NO: 1) using X-[…]™ 9 DNA Transfection Reagent (Roche product #06365787001).
The cultures were supplemented with 1 mM NR at time of transfection to minimize toxicity from SAM-TIR overexpression. Forty-eight hours after transfection, cells were harvested, pelleted by centrifugation at 1,000 rpm (Sorvall ST 16R centrifuge, Thermo Fisher), and washed once with cold PBS (0.01 M phosphate buffered saline NaCl 0.138 M; KCl 0.0027 M; pH 7.4). The cells were resuspended in PBS with protease inhibitors (cOmplete™ protease inhibitor cocktail, Roche product #11873580001) and cell lysates were prepared by sonication (Branson Sonifer 450, output=3, 20 episodes of stroke). The lysates were centrifuged (12,000×g for 10 min at 4° C.) to remove cell debris and the supernatants (containing SARM1 SAM-TIR protein) were stored at −80° C. for later use in the in vitro SARM1 SAM-TIR NADase assay (see below). Protein concentration was determined by the Bicinchoninic (BCA) method and used to normalize lysate concentrations.
The enzymatic assay was performed in a 384-well polypropylene plate in Dulbecco's PBS buffer in a final assay volume of 20 μL. SAM-TIR lysate with a final concentration of 5 μg/mL was pre-incubated with the respective compound at 1% DMSO final assay concentration over 2 h at room temperature. The reaction was initiated by addition of 5 μM final assay concentration of NAD+ as substrate. After a 2 hr room temperature incubation, the reaction was terminated with 40 μL of stop solution of 7.5% trichloroactetic acid in acetonitrile. The NAD+ and ADPR concentrations were analyzed by a RapidFire High Throughput Mass Spectrometry System (Agilent Technologies, Santa Clara, CA) using an API4000 triple quadrupole mass spectrometer (AB Sciex Framingham, MA).

Test [2] relates to mouse dorsal root ganglion (DRG) neurons. Put plainly: Axon degeneration assay in mouse DRG drop culture. The format is cell-based. Conditions: DRG neuron, protection of axon fragmentation, axonal transection or chemotoxic stimuli. As to the method:
This Example illustrates an in vitro axon degeneration assay used to characterize compounds of Formula I. This assay is used to test the efficacy of the compounds of Formula I to prevent axonal degeneration in a mouse dorsal root ganglion (DRG) drop culture.
Mouse DRG Drop culture: Mouse dorsal root ganglion neurons (DRGs) were dissected out of E12.5 CD1 mice (50 ganglion per embryo) and incubated with 0.5% Trypsin solution containing 0.02% EDTA (Gibco) at 37° C. for 15 min. The cells were then triturated by gentle pipetting and washed 3 times with DRG growth medium (Neurobasal medium (Gibco) containing 2% B27 (Invitrogen), 100 ng/ml 2.5S NGF (Harland Bioproducts), 1 mM 5-fluoro-2′ deoxyuridine (Sigma), penicillin, and streptomycin). Cells were suspended in the DRG growth medium. DRG drop cultures were created by spotting 5000 cells/well into the center of each well of a 96-well tissue culture plate coated with poly-D-Lysine (0.1 mg/ml; Sigma) and laminin ([…]; Invitrogen). Cells were allowed to adhere to the plates in a humidified tissue culture incubator (5% CO2) for 15 min and then DRG growth medium was gently added ([…]).
Axon degeneration assay: Axonal degeneration was stimulated either by manual axonal transection using a scalpel blade, or chemotoxic stimuli. After an appropriate experimental time period, the DRG cultures were fixed in 1% PFA plus sucrose and kept in the fridge prior to imaging. Bright-field images of DRG axons and cell bodies were collected using the 20× water immersion lens of a Phenix automated confocal microscope (PerkinElmer) and quantitation of axonal performed using in-house developed scripts (Acapella, PerkinElmer).

For `Brc1cccc2nncn12` [Example 3], in test [1], the 50% inhibitory concentration (IC50) (commonly the point on the concentration scale where inhibition reaches its midpoint) was over 50 µM.
For `Ic1c[nH]c2cnccc12` [Example 4], the IC50 in test [1] and in test [2] was under 10 µM throughout.
Compound `Brc1cccc2[nH]ncc12` [Example 5] returned an IC50 in test [1] of 10 to 30 µM.
The same measure, in the same setting: with `Clc1nccc2c(Br)c[nH]c12` [Example 6] the figure was under 10 µM.
Regarding `Brc1c[nH]c2cnccc12` [Example 7], the IC50 in test [1] and in test [2] was under 10 µM throughout.
`Clc1c[nH]c2cnccc12` [Example 9]: in test [1], the IC50 is under 10 µM.
Still for that read-out and setting: with `COCCCn1cc(Br)c2ccncc21` [Example 10] the figure was over 50 µM; with `NC(=O)Cn1cc(Br)c2ccncc21` [Example 11], over 50 µM.
In turn, `COCCn1cc(Br)c2ccncc21` [Example 12] gave an IC50 in test [1] of 30 to 50 µM.
Compound `CC(C)n1cc(Br)c2ccncc21` [Example 13] yielded a concentration for half-maximal inhibition (IC50) in test [1] of 30 to 50 µM.
Still for that read-out and setting: then `CCn1cc(I)c2ccncc21` [Example 14], with under 10 µM.
Same read-out and setting: then `Cn1cc(I)c2ccncc21` [Example 15], with under 10 µM.
Still for that read-out and setting: with `Cn1cc(Br)c2ccncc21` [Example 16] the figure was under 10 µM.
In test [1], `Oc1nnc2cnccn12` [Example 27] yielded an IC50 of over 50 µM.
On the same count and under the same terms, then `Cn1cnc2cnccc21` [Example 28], with under 10 µM; and `Cc1ccc2nc[nH]c2c1Br` [Example 29], with 30 to 50 µM.
Turning to `Brc1csc2cnccc12` [Example 30], the IC50 in test [1] is under 10 µM; in test [2] it was 10 to 30 µM.
`Brc1n[nH]c2cnccc12` [Example 31] returned an IC50 in test [1] of 10 to 30 µM.
On the same count and under the same terms, then `Brc1cncc2[nH]ncc12` [Example 32], with under 10 µM.
As for `c1cc2ccsc2cn1` [Example 33], the IC50 in test [1] is under 10 µM.
Still for that read-out and setting: then `N#Cc1cc2ccncc2[nH]1` [Example 37], with over 50 µM.
Same read-out and setting: then `CCOC(=O)c1[nH]c2cnccc2c1Br` [Example 38], with over 50 µM; and `O=S1(=O)C=C(Br)c2ccncc21` [Example 40], with 30 to 50 µM; and `Ic1csc2cnncc12` [Example 41], with under 10 µM.
The same measure, in the same setting: then `Ic1c[nH]c2nnccc12` [Example 42], with over 50 µM.
In test [1], `Brc1csc2cnncc12` [Example 43] registered an IC50 of under 10 µM.
The same measure, in the same setting: with `Brc1c[nH]c2nnccc12` [Example 44] the figure was over 50 µM.

(Values after patent US12448374B2, “Inhibitors of SARM1” (Disarm Therapeutics, Inc., priority 2018, dated 2025).)
